Data reported in US20210317102A1, “INHIBITORS OF INTEGRATED STRESS RESPONSE PATHWAY” (Praxis Biotech LLC, priority 2019, published 2021).

How the values were obtained:
[1] = tested on: ATF4 expression, HEK293T cells carrying the ATF4 luciferase reporter; test: ATF4 expression inhibition assay (ATF4 luciferase reporter); assay type: cell-based; settings: Homo sapiens, HEK-293T, 100 nM thapsigargin, 3 hours
Description: The ATF4 reporter was prepared by fusing the human full length 5′UTR of ATF4 (NCBI Accession No. BC022088.2) upstream of the firefly luciferase coding sequence lacking the initiator methionine. The fused sequence was cloned into pLenti-EFla-C-Myc-DDK-IRES-Puro cloning vector (Origen #PS100085) using standard methods. Virus production was carried out by using Lenti-X™ Packaging Single Shots Protocol (Clonetech #631276). Viral particles were used to transduce HEK293T cells (ATCC #CRL-3216, ATCC Manassas, Va.), which were subsequently selected with puromycin to generate stable cell line. Cells were maintained at 37° C. and 5% CO2 in DMEM-F12 (Hyclone #SH30023.02) supplemented with 10% heat-inactivated fetal bovine serum (Gibco #16000-044), 2 mM L-glutamine (Gibco #25030-081), 100 U/ml penicillin, and 100 μg/ml streptomycin (Gibco #^15140-122).
HEK293T cells carrying the ATF4 luciferase reporter were plated on 96-well plates (Nunc) at 10,000 cells per well. Cells were treated two days after seeding with 100 nM thapsigargin (Tg) (Sigma-Aldrich #T9033) in the presence of different concentrations of selected compounds ranging from 1 nM to 10 μM. Cells without treatment or cells treated with Tg alone were used as controls. Assay plates containing cells were incubated for 3 hours at 37° C.
Luciferase reactions were performed using Luciferase Assay System (Promega #E1501) as specified by the manufacturer. Luminescence was read with an integration time of 1 s and a gain of 110 using a Cytation-5 multi-mode microplate reader (BioTek). Relative luminescence units were normalized to Tg treatment (0% inhibition) and untreated cells (100% inhibition) and the percentage of ATF4 inhibition was calculated.
Accordingly, inhibition of ATF4 expression as a result of the test compound indicates suppression of the ISR pathway.

[2] = tested on: Chinese hamster ovary (CHO) cells; test: Protein synthesis assay (puromycin incorporation, western blot); assay type: cell-based; settings: 2 hours, media alone = 100%; for activity at 1 µM: Cricetulus griseus, unstressed CHO cells (without Tg), 1 μM test compound, read-out: % Protein synthesis relative to untreated (1 μM test compound); for % Recovery of protein synthesis (1 μM test compound): stressed CHO cells, 300 nM Tg plus 1 μM test compound, Tg alone = 0%
Description: Chinese hamster ovary (CHO) cells were maintained at 37° C. and 5% CO2 in Dulbecco's Modified Eagle's Media (DMEM) supplemented with 10% fetal bovine serum, 2 mM L-glutamine, 100 U/ml penicillin, and 100 μg/ml streptomycin. After reaching 80% of confluence, cells were detached and seeded on 6 well plates in complete media, allowed to recover overnight and treated for 2 hours with 1 μM of the test compound (to assess protein synthesis levels in unstressed condition), or for 2 hours with 300 nM Tg in the presence of 1 μM of the test compound (to assess the recovery of protein synthesis in a stressed condition). Cells with Tg alone were used as controls.
After the 2 hours treatments, media were replaced by adding 10 μg/ml puromycin (Sigma Aldrich #P8833) in complete media for 30 min. Media were removed and cells were lysed with SDS-PAGE lysis buffer. Lysates were transferred to 1.5 ml tubes and sonicated for 3 min and total protein amount were quantified using BCA Protein Assay Kit (Pierce). Equal amount of protein (30 μg) was loaded on SDS-PAGE gels. Proteins were transferred onto […] PVDF membranes (BioRad) and probed with primary antibodies diluted in Tris-buffered saline supplemented with 0.1% Tween 20 (Merck #S6996184 505) and 3% bovine serum albumin (Rockland #BSA-50).
Puromycin (12D10) (Merck #MABE343) and j-actin (Sigma Aldrich #A5441) antibodies were used as primary antibody. A HRP-conjugated secondary antibody (Rockland) was employed to detect immune-reactive bands using enhanced chemiluminescence (ECL Western Blotting Substrate, Pierce). Quantification of protein bands was done by densitometry using ImageJ software.
Percent increase of protein synthesis in unstressed cells (without Tg treatment) in the presence of media alone or certain test compounds is shown in Table 3. The percentage levels were normalized to the media alone condition, which correspond to 100% protein synthesis.
Percent recovery of protein synthesis in stressed cells (with Tg treatment) due to the test compounds at 1 μM is also shown in Table 3. The levels were normalized to the media alone and Tg alone conditions, which correspond to 100% and 0% respectively.

male Balb/c mice = test: Fasting-induced muscle atrophy; assay type: in vivo; settings: fasted mice, 10 mg/kg oral, compared to vehicle-treated fasted mice
Description: Wild type eight-weeks-old male Balb/c mice obtained from the vivarium Fundación Ciencia & Vida Chile (Santiago, Chile) are used. Mice are housed in independent plastic cages in a room maintained at 25° C. with a 12-h:12-h light:dark cycle.
Twenty-four hours before and during the 2 days of fasted procedures, animals receive oral administration via feeding tubes (15 gauge) of vehicle (50% Polyethylene glycol 400 (Sigma-Aldrich P3265) in distilled water or 10 mg/kg of test compound formulated in vehicle solution.
After 2 days of fasting the animals are sacrificed and muscles are removed from both hindlimbs. Mice with feed and water ad libitum are used as control. […]
Upon collection, muscles are immediately frozen in liquid nitrogen and then stored at −80° C. […] Protein concentration in supernatants is determined using BCA Protein Assay Kit (Pierce). […]
Puromycin (12D10) (Merck Millipore), MuRF-1 (Santa Cruz Biotechnology) and 3-actin (Sigma-Aldrich) antibodies are used as primary antibodies. […] Quantification of protein bands is done by densitometry using ImageJ software.
Expression of the muscle atrophy marker MuRF-1 in quadriceps from fed or fasted mice treated with vehicle or compound 11 is shown in FIG. 1D. The levels were normalized to β-actin expression and fold change was calculated as the level relative to MuRF-1 levels from control mice (Fed) which correspond to 1.

Row | SMILES | IC50 [1] [nM] | activity at 1 µM [2] [%] | % Recovery of protein synthesis (1 μM test compound) [2] [%] | Expression of the muscle atrophy marker MuRF-1 in quadriceps (male Balb/c mice)
1 | O=C(N[C@H]1CC[C@H](NCC(O)COc2ccc(Cl)cc2)CC1)c1nc2ccc(Cl)cc2[nH]1 (stereo partly drawn) [Compound 8, trans-6-chloro-N-(4-((3-(4-chlorophenoxy)-2-hydroxypropyl)amino)cyclohexyl)-1H-benzo[d]imidazole-2-carboxamide] | > 1000 | 175 | 128.3 | –
2 | CN1CC(C(=O)N[C@H]2CC[C@H](NC(=O)COc3ccc(Cl)cc3)CC2)Oc2ccc(Cl)cc21 (stereo partly drawn) [Compound 83, trans-6-chloro-N-(4-(2-(4-chlorophenoxy)acetamido)cyclohexyl)-4-methyl-3,4-dihydro-2H-benzo[b][1,4]oxazine-2-carboxamide] | 19.3 | 148 | 98.4 | –
3 | O=C(COc1ccc(Cl)cc1)N[C@H]1CC[C@H](CNC2CCc3cc(Cl)ccc3C2)CC1 (stereo partly drawn) [Compound 33, trans-N-(4-(((6-chloro-1,2,3,4-tetrahydronaphthalen-2-yl)amino)methyl)cyclohexyl)-2-(4-chlorophenoxy)acetamide] | > 1000 | 599 | – | –
4 | O=C(COc1ccc(Cl)c(F)c1)N[C@H]1CC[C@H](CNC(=O)c2cc3cc(Cl)ccc3o2)CC1 [Compound 11, trans-5-chloro-N-((4-(2-(4-chloro-3-fluorophenoxy)acetamido)cyclohexyl)methyl)benzofuran-2-carboxamide] | 0.82 | 187 | 298.9 | reduction of MuRF-1 expression
5 | O=C(COc1ccc(Cl)cc1)N[C@H]1CC[C@H](CNC(=O)c2cc3cc(Cl)ccc3o2)CC1 [Compound 15, trans-5-chloro-N-((4-(2-(4-chlorophenoxy)acetamido)cyclohexyl)methyl)benzofuran-2-carboxamide] | 1.45 | 204 | 176.3 | –
6 | O=C(NCC1CCN(CC(O)COc2ccc(Cl)c(F)c2)CC1)c1ccc2cc(Cl)ccc2n1 (stereo not drawn) [Compound 7, 6-chloro-N-((1-(3-(4-chloro-3-fluorophenoxy)-2-hydroxypropyl)piperidin-4-yl)methyl)quinoline-2-carboxamide] | > 1000 | 114 | 131.9 | –
7 | CCN1C[C@@H](C(=O)N[C@H]2CC[C@H](NC(=O)COc3ccc(Cl)cc3)CC2)Oc2ccc(Cl)cc21 [Compound 89, trans-(S)-6-chloro-N-(4-(2-(4-chlorophenoxy)acetamido)cyclohexyl)-4-ethyl-3,4-dihydro-2H-benzo[b] [1,4]oxazine-2-carboxamide] | < 1000 | 134 | 21.5 | –
8 | CC(C)(C(=O)NC[C@H]1CC[C@H](NC(=O)COc2ccc(Cl)c(F)c2)CC1)c1ccc(Cl)cc1 [Compound 32, trans-N-((4-(2-(4-chloro-3-fluorophenoxy)acetamido)cyclohexyl)methyl)-2-(4-chlorophenyl)-2-methylpropanamide] | > 1000 | 162 | 69.7 | –
9 | O=C(NCC1CCN(NC(=O)c2cc3cc(Cl)ccc3o2)CC1)c1cc2cc(Cl)ccc2o1 [Compound 97, 5-chloro-N-(4-((5-chlorobenzofuran-2-carboxamido)methyl)piperidin-1-yl)benzofuran-2-carboxamide] | 0.59 | 211 | 249.6 | –
10 | O=C(COc1ccc(Cl)c(F)c1)NC[C@H]1CC[C@H](NC(=O)c2cc3cc(Cl)ccc3o2)CC1 [Compound 13, trans-5-chloro-N-(4-((2-(4-chloro-3-fluorophenoxy)acetamido)methyl)cyclohexyl)benzofuran-2-carboxamide] | 19 | 129 | 120.4 | –
